Measured values from patent publication US10538498B2, “1,3,4-oxadiazole sulfonamide derivative compounds as histone deacetylase 6 inhibitor, and the pharmaceutical composition comprising the same” (Chong Kun Dang Pharmaceutical Corp., priority 2015, dated 2020).

Molecular target: T1, human recombinant HDAC6 (Homo sapiens, UniProt Q9UBN7)
T1 construct: purchased Calbiochem 382180
T1 sequence (Q9UBN7 1-1215): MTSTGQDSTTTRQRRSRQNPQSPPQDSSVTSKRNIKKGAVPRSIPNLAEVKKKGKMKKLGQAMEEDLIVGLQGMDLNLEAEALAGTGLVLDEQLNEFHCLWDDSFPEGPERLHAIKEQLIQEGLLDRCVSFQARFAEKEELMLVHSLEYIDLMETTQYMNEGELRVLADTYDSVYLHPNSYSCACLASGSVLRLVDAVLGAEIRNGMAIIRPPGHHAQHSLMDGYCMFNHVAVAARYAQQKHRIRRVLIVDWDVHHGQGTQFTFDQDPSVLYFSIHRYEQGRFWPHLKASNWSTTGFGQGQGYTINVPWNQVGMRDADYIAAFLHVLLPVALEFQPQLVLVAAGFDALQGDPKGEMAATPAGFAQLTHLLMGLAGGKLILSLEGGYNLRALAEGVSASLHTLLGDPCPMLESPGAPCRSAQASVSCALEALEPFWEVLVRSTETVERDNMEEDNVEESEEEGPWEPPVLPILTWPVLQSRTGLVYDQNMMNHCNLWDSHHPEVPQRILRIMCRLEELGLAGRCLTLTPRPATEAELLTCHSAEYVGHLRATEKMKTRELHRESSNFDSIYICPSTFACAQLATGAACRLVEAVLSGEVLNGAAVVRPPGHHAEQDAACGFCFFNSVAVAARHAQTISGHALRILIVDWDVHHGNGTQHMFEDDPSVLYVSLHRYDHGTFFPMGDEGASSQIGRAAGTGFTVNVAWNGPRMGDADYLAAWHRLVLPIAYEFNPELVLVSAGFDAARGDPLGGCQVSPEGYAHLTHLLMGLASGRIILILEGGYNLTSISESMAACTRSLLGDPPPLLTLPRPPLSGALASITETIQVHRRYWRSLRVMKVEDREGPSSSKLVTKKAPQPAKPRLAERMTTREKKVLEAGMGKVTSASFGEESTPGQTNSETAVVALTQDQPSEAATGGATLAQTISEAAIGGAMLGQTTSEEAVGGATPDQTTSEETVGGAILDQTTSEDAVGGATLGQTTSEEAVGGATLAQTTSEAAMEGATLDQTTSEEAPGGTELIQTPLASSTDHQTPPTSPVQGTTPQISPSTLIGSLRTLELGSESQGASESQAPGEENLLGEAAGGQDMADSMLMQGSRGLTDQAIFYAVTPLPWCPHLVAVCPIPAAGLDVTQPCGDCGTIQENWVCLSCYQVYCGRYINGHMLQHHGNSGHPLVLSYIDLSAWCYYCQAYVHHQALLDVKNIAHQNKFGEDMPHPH
Assay: HDAC6 enzyme activity inhibition assay (HDAC Fluorimetric Drug Discovery Kit)
Format: biochemical
Conditions: for HDAC6 selectivity (fold): HDAC1 vs HDAC6; for IC50: same protocol as the HDAC1 enzyme activity test
Method in brief: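 5-fold compound dilutions + 0.3 μg enzyme + 10 μM Fluor de Lys-SIRT1 substrate, 60 min, 30° C; Developer II 30 min; fluorescence Ex 360/Em 460; IC50 by curve fit.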

| Structure (SMILES) | HDAC6 selectivity (fold) | IC50 |
| --- | --- | --- |
| CCS(=O)(=O)N(Cc1ccc(-c2nnc(C(F)F)o2)cc1F)c1cccc(C2CCN(C)CC2)c1 [Compound 11427, N-(4-(5-(difluoromethyl)-1,3,4-oxadiazol-2-yl)-2-fluorobenzyl)-N-(3-(1-methylpiperidin-4-yl)phenyl)ethanesulfonamide] | 352 fold | 284 nM |
| O=S(=O)(C1CCOC1)N(Cc1ccc(-c2nnc(C(F)F)o2)cn1)c1ccccc1 (centres unmarked) [Compound 11428, N-((5-(5-(difluoromethyl)-1,3,4-oxadiazol-2-yl)pyridin-2-yl)methyl)-N-phenyltetrahydrofuran-3-sulfonamide] | 6667 fold | 15 nM |
| CS(=O)(=O)N(Cc1ccc(-c2nnc(C(F)F)o2)cn1)c1ccc(F)c(Cl)c1 [Compound 11433, N-(3-chloro-4-fluorophenyl)-N-((5-(5-(difluoromethyl)-1,3,4-oxadiazol-2-yl)pyridin-2-yl)methyl)methanesulfonamide] | 8333 fold | 12 nM |
| CC(=O)N1CC(N2CCC(S(=O)(=O)N(Cc3ccc(-c4nnc(C(F)F)o4)cc3F)c3ccc(F)c(Cl)c3)CC2)C1 [Compound 11447, 1-(1-acetylazetidin-3-yl)-N-(3-chloro-4-fluorophenyl)-N-(4-(5-(difluoromethyl)-1,3,4-oxadiazol-2-yl)-2-fluorobenzyl)piperidine-4-sulfonamide] | 5556 fold | 18 nM |
| CS(=O)(=O)N1CC(N2CCC(S(=O)(=O)N(Cc3ccc(-c4nnc(C(F)F)o4)cc3F)c3ccc(F)c(Cl)c3)CC2)C1 [Compound 11448, N-(3-chloro-4-fluorophenyl)-N-(4-(5-(difluoromethyl)-1,3,4-oxadiazol-2-yl)-2-fluorobenzyl)-1-(1-(methylsulfonyl)azetidin-3-yl)piperidine-4-sulfonamide] | 4762 fold | 21 nM |
| CCS(=O)(=O)N(Cc1ccc(-c2nnc(C(F)F)o2)cc1F)c1cccc2c1cnn2C [Compound 11520, N-(4-(5-(difluoromethyl)-1,3,4-oxadiazol-2-yl)-2-fluorobenzyl)-N-(1-methyl-1H-indazol-4-yl)ethanesulfonamide] | 3125 fold | 32 nM |
| CCS(=O)(=O)N(Cc1ccc(-c2nnc(C(F)F)o2)cc1F)c1cccc2cnn(C)c12 [Compound 11522, N-(4-(5-(difluoromethyl)-1,3,4-oxadiazol-2-yl)-2-fluorobenzyl)-N-(1-methyl-1H-indazol-7-yl)ethanesulfonamide] | 4167 fold | 24 nM |
| CCS(=O)(=O)N(Cc1ccc(-c2nnc(C(F)F)o2)cn1)c1cccc2c1cnn2C [Compound 11539, N-((5-(5-(difluoromethyl)-1,3,4-oxadiazol-2-yl)pyridin-2-yl)methyl)-N-(1-methyl-1H-indazol-4-yl)ethanesulfonamide] | 4348 fold | 23 nM |
| CCS(=O)(=O)N(Cc1ccc(-c2nnc(C(F)F)o2)cn1)c1ccc2cnn(C)c2c1 [Compound 11540, N-((5-(5-(difluoromethyl)-1,3,4-oxadiazol-2-yl)pyridin-2-yl)methyl)-N-(1-methyl-1H-indazol-6-yl)ethanesulfonamide] | 10000 fold | 10 nM |
| CCS(=O)(=O)N(Cc1ccc(-c2nnc(C(F)F)o2)cn1)c1cccc2cnn(C)c12 [Compound 11541, N-((5-(5-(difluoromethyl)-1,3,4-oxadiazol-2-yl)pyridin-2-yl)methyl)-N-(1-methyl-1H-indazol-7-yl)ethanesulfonamide] | 6250 fold | 16 nM |
| CN1CCN(CCS(=O)(=O)N(Cc2ccc(-c3nnc(C(F)F)o3)cc2F)c2ccc(F)c(Cl)c2)CC1 [Compound 11552, N-(3-chloro-4-fluorophenyl)-N-(4-(5-(difluoromethyl)-1,3,4-oxadiazol-2-yl)-2-fluorobenzyl)-2-(4-methylpiperazin-1-yl)ethane-1-sulfonamide] | 7143 fold | 14 nM |
| CC(=O)N1CCN(CCS(=O)(=O)N(Cc2ccc(-c3nnc(C(F)F)o3)cc2F)c2ccc(F)c(Cl)c2)CC1 [Compound 11553, 2-(4-acetylpiperazin-1-yl)-N-(3-chloro-4-fluorophenyl)-N-(4-(5-(difluoromethyl)-1,3,4-oxadiazol-2-yl)-2-fluorobenzyl)ethane-1-sulfonamide] | 5882 fold | 17 nM |

More lines, now with the values ahead:

| HDAC6 selectivity (fold) | IC50 | Structure (SMILES) |
| --- | --- | --- |
| 4348 fold | 23 nM | CS(=O)(=O)N1CCN(CCS(=O)(=O)N(Cc2ccc(-c3nnc(C(F)F)o3)cc2F)c2ccc(F)c(Cl)c2)CC1 [Compound 11554, N-(3-chloro-4-fluorophenyl)-N-(4-(5-(difluoromethyl)-1,3,4-oxadiazol-2-yl)-2-fluorobenzyl)-2-(4-(methylsulfonyl)piperazin-1-yl)ethane-1-sulfonamide] |
| 4762 fold | 21 nM | CS(=O)(=O)N(Cc1ncc(-c2nnc(C(F)F)o2)cn1)c1ccccc1 [Compound 11564, N-((5-(5-(difluoromethyl)-1,3,4-oxadiazol-2-yl)pyrimidin-2-yl)methyl)-N-phenylmethanesulfonamide] |
| 1124 fold | 89 nM | CS(=O)(=O)N(Cc1ccc(-c2nnc(C(F)F)o2)nn1)c1ccccc1 [Compound 11566, N-((6-(5-(difluoromethyl)-1,3,4-oxadiazol-2-yl)pyridazin-3-yl)methyl)-N-phenylmethanesulfonamide] |
| 4348 fold | 23 nM | CS(=O)(=O)N1CC(N2CCN(CCS(=O)(=O)N(Cc3ccc(-c4nnc(C(F)F)o4)cc3F)c3ccc(F)c(Cl)c3)CC2)C1 [Compound 11582, N-(3-chloro-4-fluorophenyl)-N-(4-(5-(difluoromethyl)-1,3,4-oxadiazol-2-yl)-2-fluorobenzyl)-2-(4-(1-(methylsulfonyl)azetidin-3-yl)piperazin-1-yl)ethane-1-sulfonamide] |
| 4348 fold | 23 nM | O=S(=O)(CCN1CCN(C2COC2)CC1)N(Cc1ccc(-c2nnc(C(F)F)o2)cc1F)c1ccc(F)c(Cl)c1 [Compound 11583, N-(3-chloro-4-fluorophenyl)-N-(4-(5-(difluoromethyl)-1,3,4-oxadiazol-2-yl)-2-fluorobenzyl)-2-(4-(oxetan-3-yl)piperazin-1-yl)ethane-1-sulfonamide] |
| 2273 fold | 44 nM | O=S(=O)(CCCN1CCOCC1)N(Cc1ccc(-c2nnc(C(F)F)o2)cc1F)c1ccccc1 [Compound 11588, N-(4-(5-(difluoromethyl)-1,3,4-oxadiazol-2-yl)-2-fluorobenzyl)-3-morpholino-N-phenylpropane-1-sulfonamide] |
| 2326 fold | 43 nM | CN1CCN(CCCS(=O)(=O)N(Cc2ccc(-c3nnc(C(F)F)o3)cc2F)c2ccccc2)CC1 [Compound 11589, N-(4-(5-(difluoromethyl)-1,3,4-oxadiazol-2-yl)-2-fluorobenzyl)-3-(4-methylpiperazin-1-yl)-N-phenylpropane-1-sulfonamide] |
| 66 fold | 1520 nM | CS(=O)(=O)N(Cc1cnc(-c2nnc(C(F)(F)F)o2)nc1)c1ccccc1 [Compound 11606, N-phenyl-N-((2-(5-(trifluoromethyl)-1,3,4-oxadiazol-2-yl)pyrimidin-5-yl)methyl)methanesulfonamide] |
| 719 fold | 139 nM | O=S(=O)(C1CCN(C2COC2)CC1)N(Cc1ccc(-c2nnc(C(F)F)o2)cc1F)c1ccccc1 [Compound 11625, N-(4-(5-(difluoromethyl)-1,3,4-oxadiazol-2-yl)-2-fluorobenzyl)-1-(oxetan-3-yl)-N-phenylpiperidine-4-sulfonamide] |
| 2083 fold | 48 nM | CS(=O)(=O)N(Cc1ccc(-c2nnc(C(F)F)o2)cc1)c1cccnc1 [Compound 11628, N-(4-(5-(difluoromethyl)-1,3,4-oxadiazol-2-yl)benzyl)-N-(pyridin-3-yl)methanesulfonamide] |
